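The compound was tested at five concentrations on cells cultured in 96-well plates, with a 48-hour exposure period. GI50: concentration for 50% inhibition of growth.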 Activity calls are given as the source filed them. Rule as the data show it: active = GI50 up to about 1.1 µM and inactive = higher.
Experiments:
Experiment in all cases: NCI anticancer screen, dose series, 48 h
BT-549 = system: BT-549
CAKI-1 = system: CAKI-1
COLO 205 = system: COLO 205
HCT-15 = system: HCT-15
HOP-92 = system: HOP-92
KM12 = system: KM12
MOLT-4 = system: MOLT-4
NCI-H226 = system: NCI-H226
NCI-H460 = system: NCI-H460
NCI-H522 = system: NCI-H522
OVCAR-3 = system: OVCAR-3
OVCAR-5 = system: OVCAR-5
OVCAR-8 = system: OVCAR-8
PC-3 = system: PC-3
RXF 393 = system: RXF 393
SF-295 = system: SF-295
SK-MEL-2 = system: SK-MEL-2
SNB-19 = system: SNB-19
UACC-257 = system: UACC-257
UO-31 = system: UO-31

| SMILES | GI50 (BT-549) | GI50 (CAKI-1) | GI50 (COLO 205) | GI50 (HCT-15) [µM] | GI50 (HOP-92) | GI50 (KM12) | GI50 (MOLT-4) | GI50 (NCI-H226) | GI50 (NCI-H460) | GI50 (NCI-H522) | GI50 (OVCAR-3) | GI50 (OVCAR-5) | GI50 (OVCAR-8) | GI50 (PC-3) | GI50 (RXF 393) | GI50 (SF-295) | GI50 (SK-MEL-2) | GI50 (SNB-19) | GI50 (UACC-257) | GI50 (UO-31) |
| --- | --- | --- | --- | --- | --- | --- | --- | --- | --- | --- | --- | --- | --- | --- | --- | --- | --- | --- | --- | --- |
| CCOC(=O)/C=C(\C(=O)OCC)n1cc(C)c(=O)n(Cc2cnnn2COCCOC(C)=O)c1=O | 5.52 µM (inactive) | 3.13 µM (inactive) | 2.07 µM (inactive) | 3.44 | 1.92 µM (inactive) | 16.4 µM (inactive) | 2.57 µM (inactive) | 9.59 µM (inactive) | 11.9 µM (inactive) | 1.21 µM (inactive) | 11.7 µM (inactive) | 17.1 µM (inactive) | 7.03 µM (inactive) | 16 µM (inactive) | 3.28 µM (inactive) | 25.8 µM (inactive) | 19.1 µM (inactive) | 35.2 µM (inactive) | 13.4 µM (inactive) | 14.4 µM (inactive) |
| CN(C)c1ccc(/N=N\c2cccc3ccoc23)cc1 | > 95.7 µM (inactive) | > 62.4 µM (inactive) | > 82.8 µM (inactive) | 45.2 | 70.5 µM (inactive) | > 73.1 µM (inactive) | 17.1 µM (inactive) | > 74.6 µM (inactive) | > 73.3 µM (inactive) | 35.4 µM (inactive) | 38.4 µM (inactive) | > 100 µM (inactive) | > 78 µM (inactive) | 59.6 µM (inactive) | > 80.9 µM (inactive) | 98.6 µM (inactive) | > 100 µM (inactive) | > 100 µM (inactive) | > 60.7 µM (inactive) | 6.46 µM (inactive) |
| COCN1C(=O)[C@@H]2CCCN2C(=O)c2ccc(Cl)cc21 | > 100 µM (inactive) | > 100 µM (inactive) | > 100 µM (inactive) | > 100 | > 100 µM (inactive) | > 100 µM (inactive) | > 100 µM (inactive) | > 100 µM (inactive) | > 100 µM (inactive) | > 100 µM (inactive) |  | > 100 µM (inactive) | > 100 µM (inactive) | > 100 µM (inactive) | > 100 µM (inactive) | > 100 µM (inactive) | > 100 µM (inactive) | > 100 µM (inactive) | > 100 µM (inactive) | > 100 µM (inactive) |
| Cc1ccc2nc(NC(=O)C(=O)C3C(=O)NC(=S)NC3=O)sc2c1 | > 100 µM (inactive) | > 100 µM (inactive) |  | > 100 | > 100 µM (inactive) | > 100 µM (inactive) | > 100 µM (inactive) | > 100 µM (inactive) | > 100 µM (inactive) | 78 µM (inactive) | > 100 µM (inactive) | > 100 µM (inactive) | > 100 µM (inactive) | > 100 µM (inactive) | 43.6 µM (inactive) | > 100 µM (inactive) | > 100 µM (inactive) | > 100 µM (inactive) | > 100 µM (inactive) | 77.3 µM (inactive) |
| Brc1c(C#CCC2CCCCC2)ccc(C#CCC2CCCCC2)c1Br | > 100 µM (inactive) | > 100 µM (inactive) | > 100 µM (inactive) | > 100 | > 100 µM (inactive) | > 100 µM (inactive) | > 100 µM (inactive) | > 100 µM (inactive) | > 100 µM (inactive) | > 100 µM (inactive) | > 100 µM (inactive) | > 100 µM (inactive) | > 100 µM (inactive) | > 100 µM (inactive) | > 100 µM (inactive) | > 100 µM (inactive) | > 100 µM (inactive) | > 100 µM (inactive) | > 100 µM (inactive) |  |
| COC(=O)c1cc(-c2ccc3ccccc3c2)nc(O)c1C#N | > 100 µM (inactive) | > 100 µM (inactive) | > 100 µM (inactive) | > 100 | > 100 µM (inactive) | > 100 µM (inactive) |  | > 100 µM (inactive) | > 100 µM (inactive) | > 100 µM (inactive) | > 100 µM (inactive) | > 100 µM (inactive) | > 100 µM (inactive) | > 100 µM (inactive) | > 100 µM (inactive) | > 100 µM (inactive) | > 100 µM (inactive) | > 100 µM (inactive) | > 100 µM (inactive) | > 100 µM (inactive) |
| Nc1nc(N)c2ncn(Cc3ccccc3)c2n1 | > 100 µM (inactive) | > 100 µM (inactive) | > 100 µM (inactive) | > 100 | > 100 µM (inactive) | > 100 µM (inactive) | > 100 µM (inactive) | > 100 µM (inactive) |  | > 100 µM (inactive) | > 100 µM (inactive) | > 100 µM (inactive) | > 100 µM (inactive) | > 100 µM (inactive) | > 100 µM (inactive) | > 100 µM (inactive) | > 100 µM (inactive) | > 100 µM (inactive) | > 100 µM (inactive) | > 100 µM (inactive) |
| O=c1cc(NNc2cccc(F)c2)[nH]c(=O)[nH]1 | > 100 µM (inactive) | 16.4 µM (inactive) | 34.6 µM (inactive) | 16.9 | 16.3 µM (inactive) | > 100 µM (inactive) | 27.9 µM (inactive) | > 100 µM (inactive) | > 100 µM (inactive) | 18.3 µM (inactive) | 16.5 µM (inactive) | > 100 µM (inactive) |  | > 100 µM (inactive) | 20.5 µM (inactive) | > 100 µM (inactive) | 40.5 µM (inactive) | > 100 µM (inactive) | 17.9 µM (inactive) | 29.4 µM (inactive) |
| N#Cc1c(-c2ccc([N+](=O)[O-])cc2)c(C#N)c(=O)n(NS(=O)(=O)c2ccccc2)c1S | 15.5 µM (inactive) | 66.4 µM (inactive) | 46.5 µM (inactive) | 36.9 | > 100 µM (inactive) | 25.3 µM (inactive) | 17.5 µM (inactive) | 65 µM (inactive) | 48.8 µM (inactive) | 21.2 µM (inactive) |  | 61 µM (inactive) | 33.2 µM (inactive) | 28.8 µM (inactive) | 33 µM (inactive) | 44.8 µM (inactive) | 19.2 µM (inactive) | 44.2 µM (inactive) | 99.8 µM (inactive) |  |
| OC(CC(CC(O)(C(F)(F)Cl)C(F)(F)Cl)=NNc1ccccc1)(C(F)(F)Cl)C(F)(F)Cl | 1.94 µM (inactive) | 2.9 µM (inactive) | 1.91 µM (inactive) | 3.23 | 2.01 µM (inactive) | 3.12 µM (inactive) | > 10 µM (inactive) | 2.99 µM (inactive) | 3.04 µM (inactive) | 4.4 µM (inactive) | 2.77 µM (inactive) | 3.66 µM (inactive) | 2.9 µM (inactive) | 1.35 µM (inactive) | 2.8 µM (inactive) | 2.91 µM (inactive) | 1.4 µM (inactive) | 4.01 µM (inactive) | 1.88 µM (inactive) |  |
| Cc1ccc(S(=O)(=O)NNCNC(=O)c2ccccc2)cc1 | > 100 µM (inactive) | > 100 µM (inactive) | > 100 µM (inactive) | 70.8 | > 100 µM (inactive) | 85.1 µM (inactive) | 24.2 µM (inactive) | > 100 µM (inactive) |  | > 100 µM (inactive) | > 100 µM (inactive) | > 100 µM (inactive) | > 100 µM (inactive) | > 100 µM (inactive) | > 100 µM (inactive) | > 100 µM (inactive) | > 100 µM (inactive) | > 100 µM (inactive) | > 100 µM (inactive) | 82.8 µM (inactive) |
| CN(C)c1ccc(C(C#N)N2CCCN(C(C#N)c3ccc(N(C)C)cc3)C2c2ccc(N(C)C)cc2)cc1 (stereo unspecified) | > 100 µM (inactive) | > 100 µM (inactive) | > 100 µM (inactive) | > 100 | > 100 µM (inactive) | > 100 µM (inactive) | > 100 µM (inactive) | > 100 µM (inactive) |  | > 100 µM (inactive) | > 100 µM (inactive) | > 100 µM (inactive) | > 100 µM (inactive) | > 100 µM (inactive) | > 100 µM (inactive) | > 100 µM (inactive) | > 100 µM (inactive) | > 100 µM (inactive) | > 100 µM (inactive) | > 100 µM (inactive) |
| NCCNS(=O)(=O)c1ccc(N)cc1 | > 100 µM (inactive) | > 100 µM (inactive) | > 100 µM (inactive) | > 100 | > 100 µM (inactive) | > 100 µM (inactive) | > 100 µM (inactive) | > 100 µM (inactive) |  | > 100 µM (inactive) | > 100 µM (inactive) | > 100 µM (inactive) | > 100 µM (inactive) | > 100 µM (inactive) | > 100 µM (inactive) | > 100 µM (inactive) | > 100 µM (inactive) | > 100 µM (inactive) | > 100 µM (inactive) | > 100 µM (inactive) |
| O=c1/c(=C/c2ccc([N+](=O)[O-])o2)sc2n1[C@@H](c1ccc(Cl)cc1)C=C(c1cc(F)c(Cl)cc1Cl)N=2 | 15.1 µM (inactive) | 28.7 µM (inactive) | 3.94 µM (inactive) | 8.18 | 12.9 µM (inactive) | 24.5 µM (inactive) | 12.9 µM (inactive) | 15.8 µM (inactive) | 10 µM (inactive) | 18.3 µM (inactive) |  | 16.3 µM (inactive) | 4.16 µM (inactive) | 11.5 µM (inactive) | 13.2 µM (inactive) | 21.3 µM (inactive) | 5.04 µM (inactive) | 15.9 µM (inactive) | 15.4 µM (inactive) | 14.7 µM (inactive) |
| Cn1c(=O)c2c(n(C)c1=O)n1c(=O)c3ccccc3nc1n2C | > 100 µM (inactive) | > 100 µM (inactive) | > 100 µM (inactive) | > 100 | > 100 µM (inactive) | > 100 µM (inactive) | > 100 µM (inactive) | 30.7 µM (inactive) |  | 90.4 µM (inactive) | > 100 µM (inactive) | > 100 µM (inactive) | 97.9 µM (inactive) | > 100 µM (inactive) | > 100 µM (inactive) | 38 µM (inactive) | > 100 µM (inactive) | > 100 µM (inactive) | > 100 µM (inactive) | > 100 µM (inactive) |

Reference: ChEMBL document CHEMBL1201862, “PubChem BioAssay data set” (2004)
